Several values for one entry are separate records, joined by “and”; a condition that tells them apart may be missing. Equal values may be shown once. Read-outs that look alike come from different tables or passages of the source. Marks after values point to notes of the source that are not given here.
Test: Comparative bioavailability after oral or intravenous administration to monkeys (plasma LC-MS-MS)
Type: in vivo, cynomolgus monkey
Conditions: for half-life: read-out: t½ of tapentadol valine carbamate (converted); for AUC(0-t): read-out: AUCt of tapentadol valine carbamate; for clearance: read-out: CL of tapentadol valine carbamate (converted); for Vd: read-out: Vss of tapentadol valine carbamate; for Tmax: cynomolgus
Method: Test substances i.e., tapentadol and tapentadol valine carbamate were administered (either intravenously or orally) to a group of five male cynomolgus monkeys in a three way crossover design. The oral doses were given at 1 mg tapentadol base equivalents/kg while the intravenous dose was 0.5 mg/kg
Blood samples were taken at various times after administration and submitted to analysis for the parent drug and tapentadol valine carbamate using a validated LC-MS-MS assay. Pharmacokinetic parameters derived from the plasma analytical data were determined using Win Nonlin.

[1] = male monkey, i.v. tapentadol valine carbamate 0.5 mg tapentadol free base equiv/kg, individual animals 1-5
[2] = male monkey, oral tapentadol valine carbamate 1 mg tapentadol free base equiv/kg, individual animals 1-5
[3] = male, cynomolgus monkey, plasma, iv, 0.5 mg/kg, male monkey, i.v. tapentadol valine carbamate 0.5 mg tapentadol free base equiv/kg, individual animals 1-5
[4] = male, cynomolgus monkey, plasma, iv, 0.5 mg/kg, male monkey, i.v. tapentadol valine carbamate 0.5 mg tapentadol free base equiv/kg, mean
[5] = male, cynomolgus monkey, plasma, po, 1 mg tapentadol free base equiv/kg, male monkey, oral tapentadol valine carbamate 1 mg tapentadol free base equiv/kg, individual animals 1-5
[6] = male, cynomolgus monkey, plasma, po, 1 mg tapentadol free base equiv/kg, male monkey, oral tapentadol valine carbamate 1 mg tapentadol free base equiv/kg, mean

CC[C@H](c1cccc(OC(=O)N[C@H](C(=O)O)C(C)C)c1)[C@H](C)CN(C)C (racemic) [Tapentadol valine carbamate, 2-[3-(3-Dimethylamino-1-ethyl-2-methyl-propyl)-phenoxycarbonylamino]-3-methyl-butyric acid]
concentration at 6 h (cynomolgus monkey, plasma, iv, male monkey, i.v. tapentadol valine carbamate 0.5 mg tapentadol free base equiv/kg, 6 h, individual animals 1-5): 3.21 ng/mL
Plasma concentration of tapentadol valine carbamate (male monkey, i.v. tapentadol valine carbamate 0.5 mg tapentadol free base equiv/kg, 0 h, individual animals 1-5): BLQ (BLQ Values less than LOQ (<0.5 ng/mL))
Plasma concentration of tapentadol valine carbamate (male monkey, i.v. tapentadol valine carbamate 0.5 mg tapentadol free base equiv/kg, 0.083 h, individual animals 1-5): 951 ng/mL and 914 ng/mL and 1166 ng/mL and 1024 ng/mL
Plasma concentration of tapentadol valine carbamate (male monkey, i.v. tapentadol valine carbamate 0.5 mg tapentadol free base equiv/kg, 0.25 h, individual animals 1-5): 825 ng/mL and 848 ng/mL and 427 ng/mL and 672 ng/mL
Plasma concentration of tapentadol valine carbamate (male monkey, i.v. tapentadol valine carbamate 0.5 mg tapentadol free base equiv/kg, 0.5 h, individual animals 1-5): 119.8 ng/mL and 576 ng/mL and 620 ng/mL and 609 ng/mL and 430 ng/mL
Plasma concentration of tapentadol valine carbamate (male monkey, i.v. tapentadol valine carbamate 0.5 mg tapentadol free base equiv/kg, 1 h, individual animals 1-5): 205 ng/mL and 326 ng/mL and 274 ng/mL and 251 ng/mL
Plasma concentration of tapentadol valine carbamate (male monkey, i.v. tapentadol valine carbamate 0.5 mg tapentadol free base equiv/kg, 2 h, individual animals 1-5): 112.1 ng/mL and 115.5 ng/mL and 85.6 ng/mL and 87.7 ng/mL
Plasma concentration of tapentadol valine carbamate (male monkey, i.v. tapentadol valine carbamate 0.5 mg tapentadol free base equiv/kg, 4 h, individual animals 1-5): 20.0 ng/mL and 21.4 ng/mL and 12.2 ng/mL and 14.6 ng/mL
Plasma concentration of tapentadol valine carbamate (male monkey, i.v. tapentadol valine carbamate 0.5 mg tapentadol free base equiv/kg, 6 h, individual animals 1-5): 4.94 ng/mL and 6.10 ng/mL and 3.48 ng/mL and 4.20 ng/mL
Plasma concentration of tapentadol valine carbamate (male monkey, i.v. tapentadol valine carbamate 0.5 mg tapentadol free base equiv/kg, 9 h, individual animals 1-5): 1.04 ng/mL and 0.769 ng/mL and 1.89 ng/mL and 1.20 ng/mL and 1.35 ng/mL
AUC of tapentadol valine carbamate [1]: 926 ng·h/mL and 1050 ng·h/mL and 915 ng·h/mL and 846 ng·h/mL
AUCt of tapentadol valine carbamate [1]: 925 ng·h/mL and 1040 ng·h/mL and 912 ng·h/mL and 843 ng·h/mL
C0 of tapentadol valine carbamate [1]: 794 ng/mL and 1020 ng/mL and 949 ng/mL and 1930 ng/mL and 1260 ng/mL
CL of tapentadol valine carbamate [1]: 9 mL/min/kg and 7.97 mL/min/kg and 9.12 mL/min/kg and 8.18 mL/min/kg
Vss of tapentadol valine carbamate [1]: 0.529 L/kg and 0.499 L/kg and 0.481 L/kg and 0.562 L/kg
t½ of tapentadol valine carbamate [1]: 1.1 h
AUC of tapentadol valine carbamate [2]: 219 ng·h/mL and 367 ng·h/mL and 368 ng·h/mL and 48 ng·h/mL and 436 ng·h/mL
AUCt of tapentadol valine carbamate [2]: 216 ng·h/mL and 351 ng·h/mL and 358 ng·h/mL and 187 ng·h/mL and 432 ng·h/mL
Cmax of tapentadol valine carbamate [2]: 150 ng/mL and 176 ng/mL and 153 ng/mL and 92.1 ng/mL and 249 ng/mL
T>50%Cmax of tapentadol valine carbamate [2]: 0.5 h (4×) and 1 h
t½ of tapentadol valine carbamate [2]: 3.35 h and 2.48 h and 1.86 h and 2.88 h
T>50%Cmax of tapentadol valine carbamate (male monkey, oral tapentadol valine carbamate 1 mg tapentadol free base equiv/kg, median): 0.5^a h
Plasma concentration of tapentadol valine carbamate (male monkey, oral tapentadol valine carbamate 10 mg tapentadol free base equiv/kg, 0.5 h, individual animals 1-5): 150 ng/mL and 176 ng/mL and 153 ng/mL and 34.7 ng/mL and 249 ng/mL
Plasma concentration of tapentadol valine carbamate (male monkey, oral tapentadol valine carbamate 10 mg tapentadol free base equiv/kg, 0.5 h, mean): 153 ng/mL
Plasma concentration of tapentadol valine carbamate (male monkey, oral tapentadol valine carbamate 10 mg tapentadol free base equiv/kg, 1 h, individual animals 1-5): 96.1 ng/mL and 126 ng/mL and 127 ng/mL and 92.1 ng/mL and 227 ng/mL
Plasma concentration of tapentadol valine carbamate (male monkey, oral tapentadol valine carbamate 10 mg tapentadol free base equiv/kg, 1 h, mean): 134 ng/mL
Plasma concentration of tapentadol valine carbamate (male monkey, oral tapentadol valine carbamate 10 mg tapentadol free base equiv/kg, 2 h, individual animals 1-5): 31.8 ng/mL and 71.3 ng/mL and 58.9 ng/mL and 49.4 ng/mL and 87.9 ng/mL
Plasma concentration of tapentadol valine carbamate (male monkey, oral tapentadol valine carbamate 10 mg tapentadol free base equiv/kg, 2 h, mean): 59.9 ng/mL
Plasma concentration of tapentadol valine carbamate (male monkey, oral tapentadol valine carbamate 10 mg tapentadol free base equiv/kg, 3 h, individual animals 1-5): 10.7 ng/mL and 23.1 ng/mL and 25.2 ng/mL and 16.4 ng/mL and 22.1 ng/mL
Plasma concentration of tapentadol valine carbamate (male monkey, oral tapentadol valine carbamate 10 mg tapentadol free base equiv/kg, 3 h, mean): 19.5 ng/mL
Plasma concentration of tapentadol valine carbamate (male monkey, oral tapentadol valine carbamate 10 mg tapentadol free base equiv/kg, 4 h, individual animals 1-5): 5.49 ng/mL and 15.1 ng/mL and 25.7 ng/mL and 12.7 ng/mL and 6.89 ng/mL
Plasma concentration of tapentadol valine carbamate (male monkey, oral tapentadol valine carbamate 10 mg tapentadol free base equiv/kg, 4 h, mean): 13.2 ng/mL
Plasma concentration of tapentadol valine carbamate (male monkey, oral tapentadol valine carbamate 10 mg tapentadol free base equiv/kg, 6 h, individual animals 1-5): 4.60 ng/mL and 10.0 ng/mL and 17.0 ng/mL and 4.51 ng/mL and 3.93 ng/mL
Plasma concentration of tapentadol valine carbamate (male monkey, oral tapentadol valine carbamate 10 mg tapentadol free base equiv/kg, 6 h, mean): 8.01 ng/mL
Plasma concentration of tapentadol valine carbamate (male monkey, oral tapentadol valine carbamate 10 mg tapentadol free base equiv/kg, 9 h, individual animals 1-5): 1.93 ng/mL and 7.34 ng/mL and 5.61 ng/mL and 1.11 ng/mL and 1.86 ng/mL
Plasma concentration of tapentadol valine carbamate (male monkey, oral tapentadol valine carbamate 10 mg tapentadol free base equiv/kg, 9 h, mean): 3.57 ng/mL
Plasma concentration of tapentadol valine carbamate (male monkey, oral tapentadol valine carbamate 10 mg tapentadol free base equiv/kg, 12 h, individual animals 1-5): 0.741 ng/mL and 2.97 ng/mL and 3.04 ng/mL and 0.716 ng/mL and 0.929 ng/mL
Plasma concentration of tapentadol valine carbamate (male monkey, oral tapentadol valine carbamate 10 mg tapentadol free base equiv/kg, 12 h, mean): 1.68 ng/mL
concentration at 0.083 h (male, cynomolgus monkey, plasma, iv, 0.5 mg tapentadol free base equiv/kg, male monkey, i.v. tapentadol valine carbamate 0.5 mg tapentadol free base equiv/kg, 0.083 h, mean): 969 ng/mL
concentration at 0.25 h (male, cynomolgus monkey, plasma, iv, 0.5 mg tapentadol free base equiv/kg, male monkey, i.v. tapentadol valine carbamate 0.5 mg tapentadol free base equiv/kg, 0.25 h, mean): 711 ng/mL
concentration at 0.5 h (male, cynomolgus monkey, plasma, iv, 0.5 mg tapentadol free base equiv/kg, male monkey, i.v. tapentadol valine carbamate 0.5 mg tapentadol free base equiv/kg, 0.5 h, mean): 471 ng/mL
concentration at 1 h (male, cynomolgus monkey, plasma, iv, 0.5 mg tapentadol free base equiv/kg, male monkey, i.v. tapentadol valine carbamate 0.5 mg tapentadol free base equiv/kg, 1 h, mean): 255 ng/mL
concentration at 2 h (male, cynomolgus monkey, plasma, iv, 0.5 mg tapentadol free base equiv/kg, male monkey, i.v. tapentadol valine carbamate 0.5 mg tapentadol free base equiv/kg, 2 h, mean): 98.6 ng/mL
concentration at 4 h (male, cynomolgus monkey, plasma, iv, 0.5 mg tapentadol free base equiv/kg, male monkey, i.v. tapentadol valine carbamate 0.5 mg tapentadol free base equiv/kg, 4 h, mean): 16 ng/mL
concentration at 6 h (male, cynomolgus monkey, plasma, iv, 0.5 mg tapentadol free base equiv/kg, male monkey, i.v. tapentadol valine carbamate 0.5 mg tapentadol free base equiv/kg, 6 h, mean): 4.39 ng/mL
concentration at 9 h (male, cynomolgus monkey, plasma, iv, 0.5 mg tapentadol free base equiv/kg, male monkey, i.v. tapentadol valine carbamate 0.5 mg tapentadol free base equiv/kg, 9 h, mean): 1.25 ng/mL
half-life (male, cynomolgus monkey, plasma, iv, 0.5 mg/kg, male monkey, i.v. tapentadol valine carbamate 0.5 mg tapentadol free base equiv/kg, calculated as ln2/mean k): 1.4 h
AUC [3]: 680 ng·h/mL
AUC(0-t) [3]: 678 ng·h/mL
clearance [3]: 12.2 mL/min/kg
Vd [3]: 0.75 L/kg
half-life [3]: 1.5 h
AUC [4]: 883 ng·h/mL
C0 [4]: 1190 ng/mL
AUC(0-t) [4]: 880 ng·h/mL
clearance [4]: 9.63 mL/min/kg
Vd [4]: 0.564 L/kg
half-life (male, cynomolgus monkey, plasma, po, 1 mg tapentadol free base equiv/kg, male monkey, oral tapentadol valine carbamate 1 mg tapentadol free base equiv/kg, calculated as ln2/mean k): 2.47 h
half-life [5]: 2.28 h
AUC [6]: 316 ng·h/mL
Cmax [6]: 164 ng/mL
AUC(0-t) [6]: 309 ng·h/mL
Tmax [5]: 0.5 h
Tmax (male, cynomolgus monkey, plasma, po, 1 mg tapentadol free base equiv/kg, male monkey, oral tapentadol valine carbamate 1 mg tapentadol free base equiv/kg, median): 0.5 h
prodrug absorbed after oral administration (monkey, comparison of AUC after oral (Table 13) and intravenous dosing (Table 12)): at least 36%
